In US4432973A, “Benzoyl- and α-hydroxybenzyl-phenyl-glycosides and application thereof in therapeutics” (Societe de Recherches Industrielles (S.O.R.I.), priority 1980, dated 1984):

Tests used:
[1] = Acute toxicity in the mouse by the I.P. route; format: in vivo; conditions: for LD50: read-out: DL-50 (lethal dose involving the death of half of the animals)
Text: The acute toxicity was studied in the mouse by the I.P. route. It is expressed in the form of DL-50 (lethal dose involving the death of half of the animals) or DL-0 (maximum non-lethal dose).

[2] = Anti-hypoxic activity: survival to hypoxia (nitrogen-oxygen 95:5); format: in vivo, mouse (Swiss male); conditions: I.P., 1/10th of LD-50 or 100 mg/kg when LD-0 ≥ 800 mg/kg; up to 15 minutes; mouse
Protocol: The experiment is carried out on batches of 20 Swiss male mice weighing from 20 to 30 g. Each product to be tested is administered to the mice by intraperitoneal route at a dose corresponding to 1/10th of the LD-50 or at a dose of 100 mg/kg when the LD-0 is higher than or equal to 800 mg/kg. The mice are placed in a nitrogen-oxygen (95:5) v/v atmosphere. The survival time of the mice is then measured up to 15 minutes maximum.
The results shown in Table VII are expressed in percentage of survival with respect to a non-treated control batch and a batch treated with an anti-hypoxic reference product [specialty known under the trade name of "Duxil" and which is constituted by a mixture of Almitrine bis-methanesulfonate and of Raubasine in the weight ratio 3:1], the anti-hypoxic reference product being administered at the dose of 18 mg/kg I.P.

[3] = Veinous thrombosis: veinous anti-thrombus activity; format: in vivo; conditions: Rattus norvegicus, ip, 100 mg/kg I.P., 4 to 5 hours after administration, read-out: Diminution of veinous thrombus
Protocol: The technique used is similar to the one described by Peterson-Zucker in Thrombo.Diath.Haemorh. 23, 1, (1970).
An occlusive thrombus is created in the […] vena cava of a rat by the combined action of an endothelial alteration and a veinous stasis for 15 mins. and 4 to 5 hours after administration of the product to be tested (100 mg/kg I.P.).

[4] = test system: blood platelet aggregation; test: Spontaneous aggregation: blood platelet anti-aggregation activity; format: in vivo, rat (adult male); conditions: t=5 hours, rat; for inhibition in vivo at 100 mg/kg: ip, 100 mg/kg I.P.
Protocol: The technique used is that of Sanders described in Laboratory Animal Science 27 (No. 5), pages 757-761 (1977).
After administration at 100 mg/kg I.P. (unless specified to the contrary in Table V hereinbelow) of the product to be tested to adult male reproducing rats, two blood samples are taken, one on sodium citrate and the other on sodium citrate treated with formaldehyde at instant t=5 hours.
After centrifugation of the samples, a platelet count is made on the supernatant liquid. The spontaneous aggregation index according to Wu and Hook Stroke 6, 521-524 (1975) is expressed by the relation: [formula]

[5] = Anti-ulcer activity: ulcer caused by aspirin; format: in vivo, rat (male Wistar); conditions: 100 mg/kg I.P.; aspirin 192 mg/kg per os; standardised to control batch and cimetidine (index 1)
Protocol: The experiment is carried out on male Wistar rats of 180 to 200 g. The products to be tested are administered at 100 mg/kg I.P. (unless indicated to the contrary in Table IV).
At t=0, the rats are made to fast and a first administration of the product to be tested is made.
At t=18 hours, 2 ml of an ulcer-forming suspension with 192 mg of aspirin/kg are administered per os then a second administration of the product to be tested is made.
At t=22 hours, the animals are sacrificed and the ulcers are marked as follows: small point-like ulcers: mark 1 more extensive ulcers: mark 3 highly extensive or very deep ulcers: mark 9
This marking is standardised with respect to a control batch and to cimetidine (a reference product) to which index 1 has been allocated.

Row | Compound | LD50 ([1]; in vivo, ip, I.P.) | Survival (survival percentage to hypoxic aggression) [2] | inhibition in vivo at 100 mg/kg [3] | DL-0 (maximum non-lethal dose) ([1]; in vivo, ip) | Ulcer index [5] | further results
1 | OC[C@H]1O[C@@H](Oc2ccc(C(O)c3ccc(Cl)cc3)cc2)[C@H](O)[C@@H](O)[C@@H]1O (stereo partly drawn) [Example 131] | 730 mg/kg | ++ (from 50 to 79%) | 30 to 49% | – | – | –
2 | OC(c1ccc(Cl)cc1)c1ccc(O[C@@H]2OC[C@@H](O)[C@H](O)[C@H]2O)cc1 (stereo partly drawn) [Example 94] | – | + (from 30 to 49%) | – | – | – | Inhibition of platelet aggregation ([4]; 33 mg/kg IP): + (inhibition of 25 to 39%); DL-50 (lethal dose involving the death of half of the animals) ([1]; I.P.): 330 mg/kg IP
3 | CC(=O)O[C@@H]1[C@@H](OC(C)=O)[C@H](Oc2ccc(C(=O)c3ccc(C)cc3)cc2)OC[C@H]1OC(C)=O [Example 76] | – | ++ (from 50 to 79%) | 30 to 49% | > 800 mg/kg IP | 0.38 | –
4 | CC(=O)O[C@@H]1[C@@H](OC(C)=O)[C@H](Oc2c(C)cc(C(=O)c3ccccc3Cl)cc2C)OC[C@H]1OC(C)=O [Example 113] | 630 mg/kg | +++ (higher than or equal to 80%) | – | – | – | inhibition in vivo at 63 mg/kg ([4]; Platelet, 63 mg/kg IP): ≥ 40%
5 | CC(=O)N[C@H]1[C@H](Oc2ccc(C(O)c3ccc([N+](=O)[O-])cc3)cc2)O[C@H](CO)[C@@H](O)[C@@H]1O (stereo partly drawn) [Example 123] | – | ++ (from 50 to 79%) | 30 to 49% | > 800 mg/kg IP | – | –
6 | CC(=O)O[C@@H]1[C@@H](OC(C)=O)[C@H](Oc2ccc(C(=O)c3cccc(C(F)(F)F)c3)cc2)OC[C@H]1OC(C)=O [Example 108] | – | + (from 30 to 49%) | 30 to 49% | > 800 mg/kg IP | 0.30 | –
7 | O=C(c1ccc(O[C@@H]2OC[C@@H](O)[C@H](O)[C@H]2O)cc1)c1ccccc1O [Example 125] | 1700 mg/kg | + (from 30 to 49%) | 30 to 49% | – | – | –
8 | COc1cc(C(=O)c2ccc(O[C@@H]3OC[C@@H](OC(C)=O)[C@H](OC(C)=O)[C@H]3OC(C)=O)cc2)cc(OC)c1OC [Example 79] | – | – | – | – | – | inhibition in vivo at 100 mg/kg ([4]; Platelet): ≥ 40%; DL-0 (maximum non-lethal dose) ([1]; I.P.): > 800 mg/kg IP
9 | OC(c1ccc(Cl)cc1)c1ccc(O[C@@H]2OC[C@@H](O)[C@H](O)[C@H]2O)cc1 (stereo partly drawn) [Example 91] | – | +++ (higher than or equal to 80%) | 30 to 49% | > 800 mg/kg IP | 0.72 | –
10 | CC(=O)N[C@H]1[C@H](Oc2c(C)cc(C(=O)c3ccc([N+](=O)[O-])cc3)cc2C)O[C@H](CO)[C@@H](O)[C@@H]1O [Example 119] | – | +++ (higher than or equal to 80%) | ≥ 50% | > 800 mg/kg IP | 0.47 | –
11 | Cc1ccccc1C(=O)c1cc(C)c(O[C@@H]2OC[C@@H](O)[C@H](O)[C@H]2O)c(C)c1 [Example 21] | 600 mg/kg | – | – | – | 0.16 | inhibition in vivo at 100 mg/kg ([4]; Platelet): ≥ 40%
12 | O=[N+]([O-])c1ccccc1C(O)c1ccc(O[C@@H]2OC[C@@H](O)[C@H](O)[C@H]2O)cc1 (stereo partly drawn) [Example 101] | – | + (from 30 to 49%) | ≥ 50% | > 800 mg/kg IP | 0.56 | –
13 | CC(=O)O[C@@H]1[C@@H](OC(C)=O)[C@H](Oc2c(C)cc(C(=O)c3ccc(Cl)cc3)cc2C)OC[C@H]1OC(C)=O [Example 114] | – | ++ (from 50 to 79%) | – | > 800 mg/kg IP | – | inhibition in vivo at 100 mg/kg ([4]; Platelet): 25 to 39%
14 | O=C(c1ccc(Cl)cc1)c1ccc(O[C@@H]2OC[C@@H](O)[C@H](O)[C@H]2O)cc1 [Example 3] | – | +++ (higher than or equal to 80%) | 30 to 49% | > 800 mg/kg IP | – | –
15 | Cc1cc(C(O)c2ccccc2C)ccc1O[C@@H]1OC[C@@H](O)[C@H](O)[C@H]1O (stereo partly drawn) [Example 105] | 450 mg/kg | – | – | – | – | inhibition in vivo at 45 mg/kg ([4]; Platelet, 45 mg/kg IP): 25 to 39%
16 | OC(c1ccc(O[C@@H]2OC[C@@H](O)[C@H](O)[C@H]2O)cc1)c1ccc(Cl)cc1Cl (stereo partly drawn) [Example 86] | > 350 mg/kg | – | 30 to 49% | – | 0.50 | –
17 | O=C(c1ccc(O[C@@H]2OC[C@@H](O)[C@H](O)[C@H]2O)cc1)c1cccc([N+](=O)[O-])c1 [Example 2] | – | – | 30 to 49% | – | 0.84 | DL-0 (maximum non-lethal dose) ([1]; I.P.): > 800 mg/kg IP
18 | CC(=O)O[C@@H]1[C@@H](OC(C)=O)[C@H](Oc2ccc(C(=O)c3ccccc3C)cc2)OC[C@H]1OC(C)=O [Example 69] | 900 mg/kg | – | 30 to 49% | – | 0.78 | –
19 | COc1ccc(C(=O)c2ccc(O[C@@H]3OC[C@@H](O)[C@H](O)[C@H]3O)cc2)cc1 [Example 17] | 1600 mg/kg | – | 30 to 49% | – | 0.69 | –
20 | Cc1ccccc1C(O)c1ccc(O[C@@H]2OC[C@@H](O)[C@H](O)[C@H]2O)cc1 (stereo partly drawn) [Example 89] | – | – | ≥ 50% | – | 0.88 | DL-0 (maximum non-lethal dose) ([1]; I.P.): > 800 mg/kg IP
21 | Cc1cc(C(=O)c2ccccc2C)ccc1O[C@@H]1OC[C@@H](O)[C@H](O)[C@H]1O [Example 85] | > 550 mg/kg | + (from 30 to 49%) | ≥ 50% | – | – | –
22 | O=C(c1ccc(Br)cc1)c1ccc(O[C@@H]2OC[C@@H](O)[C@H](O)[C@H]2O)cc1 [Example 4] | – | – | 30 to 49% | – | 1.04 | DL-0 (maximum non-lethal dose) ([1]; I.P.): > 800 mg/kg IP
23 | Cc1cc(C)c(C(=O)c2cccc(O[C@@H]3OC[C@@H](O)[C@H](O)[C@H]3O)c2)c(C)c1 [Example 71] | – | – | 30 to 49% | – | 0.98 | DL-0 (maximum non-lethal dose) ([1]; I.P.): > 800 mg/kg IP
24 | Cc1cc(C(=O)c2ccc([N+](=O)[O-])cc2)cc(C)c1O[C@@H]1OC[C@@H](O)[C@H](O)[C@H]1O [Example 23] | 750 mg/kg | – | 30 to 49% | – | 0.52 | –
25 | CC(=O)O[C@@H]1[C@@H](OC(C)=O)[C@H](Oc2ccc(C(=O)c3ccccc3Cl)cc2)OC[C@H]1OC(C)=O [Example 70] | – | – | 30 to 49% | – | 0.56 | DL-0 (maximum non-lethal dose) ([1]; I.P.): > 800 mg/kg IP
26 | O=C(c1ccc(O[C@@H]2OC[C@@H](O)[C@H](O)[C@H]2O)cc1)c1ccccc1[N+](=O)[O-] [Example 6] | 600 mg/kg | – | 30 to 49% | – | 0.45 | –
